Results as given in publication PMC9082781 (ACS infectious diseases, 2021).
In brackets after ≈: the same amount, converted by molar mass. Non-standard residues stand in square brackets, D forms with d. Residues, ends and D or L forms follow the SMILES beside them. No end group written: not given here. *: point of attachment. Myristoyl = CCCCCCCCCCCCCC(=O)*; Lauroyl = CCCCCCCCCCCC(=O)*; Decanoyl = CCCCCCCCCC(=O)*; Octanoyl = CCCCCCCC(=O)*; Hexanoyl = CCCCCC(=O)*

Key:
[1] = system: Klebsiella pneumonia ATCC 13883; assay type: cell-based, Klebsiella pneumoniae
P. aeruginosa PAO1 = assay type: cell-based, Pseudomonas aeruginosa

## CCCCCC(=O)N[C@@H](CCCCN)C(=O)N[C@@H](CCCNC(=N)N)C(=O)N[C@H](C(=O)N[C@@H](Cc1c[nH]c2ccccc12)C(N)=O)[C@@H](C)CC [Peptide C6-KR4] (Hexanoyl-KRIW-NH2; C-terminus assumed)
[1]
  MIC KP: >50 µM

## CCCCCC(=O)N[C@@H](CCCCN)C(=O)N[C@@H](CCCNC(=N)N)C(=O)N[C@H](C(=O)N[C@@H](Cc1c[nH]c2ccccc12)C(=O)N[C@@H](CCC(N)=O)C(=O)N[C@@H](CCCNC(=N)N)C(N)=O)[C@@H](C)CC [Peptide C6-KR6] (Hexanoyl-KRIWQR-NH2; C-terminus assumed)
[1]
  MIC KP: >50 µM

## CCCCCC(=O)N[C@@H](CCCCN)C(=O)N[C@@H](CCCNC(=N)N)C(=O)N[C@H](C(=O)N[C@@H](Cc1c[nH]c2ccccc12)C(=O)N[C@@H](CCC(N)=O)C(=O)N[C@@H](CCCNC(=N)N)C(=O)N[C@H](C(=O)N[C@@H](CCCCN)C(N)=O)[C@@H](C)CC)[C@@H](C)CC [Peptide C6-KR8] (Hexanoyl-KRIWQRIK-NH2)
[1]
  MIC KP: >50 µM

## CCCCCC(=O)N[C@@H](CCCCN)C(=O)N[C@@H](CCCNC(=N)N)C(=O)N[C@H](C(=O)N[C@@H](Cc1c[nH]c2ccccc12)C(=O)N[C@@H](CCC(N)=O)C(=O)N[C@@H](CCCNC(=N)N)C(=O)N[C@H](C(=O)N[C@@H](CCCCN)C(=O)N[C@@H](CC(=O)O)C(=O)N[C@@H](Cc1ccccc1)C(N)=O)[C@@H](C)CC)[C@@H](C)CC [Peptide C6-KR10] (Hexanoyl-KRIWQRIKDF-NH2)
[1]
  MIC KP: >50 µM

## CCCCCC(=O)N[C@@H](CCCCN)C(=O)N[C@@H](CCCNC(=N)N)C(=O)N[C@H](C(=O)N[C@@H](Cc1c[nH]c2ccccc12)C(=O)N[C@@H](CCC(N)=O)C(=O)N[C@@H](CCCNC(=N)N)C(=O)N[C@H](C(=O)N[C@@H](CCCCN)C(=O)N[C@@H](CC(=O)O)C(=O)N[C@@H](Cc1ccccc1)C(=O)N[C@@H](CC(C)C)C(=O)N[C@@H](CCCNC(=N)N)C(N)=O)[C@@H](C)CC)[C@@H](C)CC [Peptide C6-KR12] (Hexanoyl-KRIWQRIKDFLR-NH2)
[1]
  MIC KP: 6.2 µM (≈ 10.9 µg/mL)

## CCCCCCCC(=O)N[C@@H](CCCCN)C(=O)N[C@@H](CCCNC(=N)N)C(=O)N[C@H](C(=O)N[C@@H](Cc1c[nH]c2ccccc12)C(N)=O)[C@@H](C)CC [Peptide C8-KR4] (Octanoyl-KRIW-NH2; C-terminus assumed)
[1]
  MIC KP: >50 µM

## CCCCCCCC(=O)N[C@@H](CCCCN)C(=O)N[C@@H](CCCNC(=N)N)C(=O)N[C@H](C(=O)N[C@@H](Cc1c[nH]c2ccccc12)C(=O)N[C@@H](CCC(N)=O)C(=O)N[C@@H](CCCNC(=N)N)C(N)=O)[C@@H](C)CC [Peptide C8-KR6] (Octanoyl-KRIWQR-NH2; C-terminus assumed)
[1]
  MIC KP: >50 µM

## CCCCCCCC(=O)N[C@@H](CCCCN)C(=O)N[C@@H](CCCNC(=N)N)C(=O)N[C@H](C(=O)N[C@@H](Cc1c[nH]c2ccccc12)C(=O)N[C@@H](CCC(N)=O)C(=O)N[C@@H](CCCNC(=N)N)C(=O)N[C@H](C(=O)N[C@@H](CCCCN)C(N)=O)[C@@H](C)CC)[C@@H](C)CC [Peptide C8-KR8] (Octanoyl-KRIWQRIK-NH2)
[1]
  MIC KP: >50 µM

## CCCCCCCC(=O)N[C@H](CCCCN)C(=O)N[C@H](CCCNC(=N)N)C(=O)N[C@@H](C(=O)N[C@H](Cc1c[nH]c2ccccc12)C(=O)N[C@H](CCC(N)=O)C(=O)N[C@H](CCCNC(=N)N)C(=O)N[C@@H](C(=O)N[C@H](CCCCN)C(=O)N[C@H](CC(=O)O)C(=O)N[C@H](Cc1ccccc1)C(N)=O)[C@H](C)CC)[C@H](C)CC [Peptide C8-KR10d] (Octanoyl-[dK][dR][dI][dW][dQ][dR][dI][dK][dD][dF]-NH2; C-terminus assumed)
P. aeruginosa PAO1
  MIC PA: 12.5 µM (≈ 18.9 µg/mL)
S. aureus USA300 LAC; USA300
  MIC SA: 3.1 µM (≈ 4.7 µg/mL)
S. aureus USA300 LAC; USA300, pH 7.4
  Minimal inhibitory concentration (MIC): 3.1 µM (≈ 4.7 µg/mL)
E. coli ATCC25922
  MIC EC: 6.2 µM (≈ 9.39 µg/mL)
[1]
  MIC KP: 12.5 µM (≈ 18.9 µg/mL)

## CCCCCCCC(=O)N[C@@H](CCCCN)C(=O)N[C@@H](CCCNC(=N)N)C(=O)N[C@H](C(=O)N[C@@H](Cc1c[nH]c2ccccc12)C(=O)N[C@@H](CCC(N)=O)C(=O)N[C@@H](CCCNC(=N)N)C(=O)N[C@H](C(=O)N[C@@H](CCCCN)C(=O)N[C@@H](CC(=O)O)C(=O)N[C@@H](Cc1ccccc1)C(=O)N[C@@H](CC(C)C)C(=O)N[C@@H](CCCNC(=N)N)C(N)=O)[C@@H](C)CC)[C@@H](C)CC [Peptide C8-KR12] (Octanoyl-KRIWQRIKDFLR-NH2)
[1]
  MIC KP: <6.2 µM

## CCCCCCCCCC(=O)N[C@@H](CCCCN)C(=O)N[C@@H](CCCNC(=N)N)C(=O)N[C@H](C(=O)N[C@@H](Cc1c[nH]c2ccccc12)C(N)=O)[C@@H](C)CC [Peptide C10-KR4] (Decanoyl-KRIW-NH2; C-terminus assumed)
[1]
  MIC KP: >50 µM

## CCCCCCCCCC(=O)N[C@@H](CCCCN)C(=O)N[C@@H](CCCNC(=N)N)C(=O)N[C@H](C(=O)N[C@@H](Cc1c[nH]c2ccccc12)C(=O)N[C@@H](CCC(N)=O)C(=O)N[C@@H](CCCNC(=N)N)C(N)=O)[C@@H](C)CC [Peptide C10-KR6] (Decanoyl-KRIWQR-NH2; C-terminus assumed)
[1]
  MIC KP: >50 µM

## CCCCCCCCCC(=O)N[C@@H](CCCCN)C(=O)N[C@@H](CCCNC(=N)N)C(=O)N[C@H](C(=O)N[C@@H](Cc1c[nH]c2ccccc12)C(=O)N[C@@H](CCC(N)=O)C(=O)N[C@@H](CCCNC(=N)N)C(=O)N[C@H](C(=O)N[C@@H](CCCCN)C(=O)N[C@@H](CC(=O)O)C(=O)N[C@@H](Cc1ccccc1)C(N)=O)[C@@H](C)CC)[C@@H](C)CC [Peptide C10-KR10] (Decanoyl-KRIWQRIKDF-NH2)
P. aeruginosa PAO1
  MIC PA: 6.2 µM (≈ 9.57 µg/mL)
[1]
  MIC KP: 6.2 µM (≈ 9.57 µg/mL)

## CCCCCCCCCC(=O)N[C@@H](CCCCN)C(=O)N[C@@H](CCCNC(=N)N)C(=O)N[C@H](C(=O)N[C@@H](Cc1c[nH]c2ccccc12)C(=O)N[C@@H](CCC(N)=O)C(=O)N[C@@H](CCCNC(=N)N)C(=O)N[C@H](C(=O)N[C@@H](CCCCN)C(=O)N[C@@H](CC(=O)O)C(=O)N[C@@H](Cc1ccccc1)C(=O)N[C@@H](CC(C)C)C(=O)N[C@@H](CCCNC(=N)N)C(N)=O)[C@@H](C)CC)[C@@H](C)CC [Peptide C10-KR12] (Decanoyl-KRIWQRIKDFLR-NH2)
[1]
  MIC KP: 6.2 to 12.5 µM

## CCCCCCCCCCCC(=O)N[C@@H](CCCCN)C(=O)N[C@@H](CCCNC(=N)N)C(=O)N[C@H](C(=O)N[C@@H](Cc1c[nH]c2ccccc12)C(N)=O)[C@@H](C)CC [Peptide C12-KR4] (Lauroyl-KRIW-NH2; C-terminus assumed)
[1]
  MIC KP: >50 µM

## CCCCCCCCCCCC(=O)N[C@@H](CCCCN)C(=O)N[C@@H](CCCNC(=N)N)C(=O)N[C@H](C(=O)N[C@@H](Cc1c[nH]c2ccccc12)C(=O)N[C@@H](CCC(N)=O)C(=O)N[C@@H](CCCNC(=N)N)C(N)=O)[C@@H](C)CC [Peptide C12-KR6] (Lauroyl-KRIWQR-NH2; C-terminus assumed)
[1]
  MIC KP: >50 µM

## CCCCCCCCCCCC(=O)N[C@@H](CCCCN)C(=O)N[C@@H](CCCNC(=N)N)C(=O)N[C@H](C(=O)N[C@@H](Cc1c[nH]c2ccccc12)C(=O)N[C@@H](CCC(N)=O)C(=O)N[C@@H](CCCNC(=N)N)C(=O)N[C@H](C(=O)N[C@@H](CCCCN)C(N)=O)[C@@H](C)CC)[C@@H](C)CC [Peptide C12-KR8] (Lauroyl-KRIWQRIK-NH2)
[1]
  MIC KP: >50 µM

## CCCCCCCCCCCC(=O)N[C@@H](CCCCN)C(=O)N[C@@H](CCCNC(=N)N)C(=O)N[C@H](C(=O)N[C@@H](Cc1c[nH]c2ccccc12)C(=O)N[C@@H](CCC(N)=O)C(=O)N[C@@H](CCCNC(=N)N)C(=O)N[C@H](C(=O)N[C@@H](CCCCN)C(=O)N[C@@H](CC(=O)O)C(=O)N[C@@H](Cc1ccccc1)C(N)=O)[C@@H](C)CC)[C@@H](C)CC [Peptide C12-KR10] (Lauroyl-KRIWQRIKDF-NH2)
P. aeruginosa PAO1
  MIC PA: 3.1 µM (≈ 4.87 µg/mL)
[1]
  MIC KP: 3.1 µM (≈ 4.87 µg/mL)

## CCCCCCCCCCCC(=O)N[C@@H](CCCCN)C(=O)N[C@@H](CCCNC(=N)N)C(=O)N[C@H](C(=O)N[C@@H](Cc1c[nH]c2ccccc12)C(=O)N[C@@H](CCC(N)=O)C(=O)N[C@@H](CCCNC(=N)N)C(=O)N[C@H](C(=O)N[C@@H](CCCCN)C(=O)N[C@@H](CC(=O)O)C(=O)N[C@@H](Cc1ccccc1)C(=O)N[C@@H](CC(C)C)C(=O)N[C@@H](CCCNC(=N)N)C(N)=O)[C@@H](C)CC)[C@@H](C)CC [Peptide C12-KR12] (Lauroyl-KRIWQRIKDFLR-NH2)
[1]
  MIC KP: 12.5 µM (≈ 23 µg/mL)

## CCCCCCCCCCCCCC(=O)N[C@@H](CCCCN)C(=O)N[C@@H](CCCNC(=N)N)C(=O)N[C@H](C(=O)N[C@@H](Cc1c[nH]c2ccccc12)C(N)=O)[C@@H](C)CC [Peptide C14-KR4] (Myristoyl-KRIW-NH2; C-terminus assumed)
[1]
  MIC KP: 12.5 µM (≈ 10.1 µg/mL)

## CCCCCCCCCCCCCC(=O)N[C@@H](CCCCN)C(=O)N[C@@H](CCCNC(=N)N)C(=O)N[C@H](C(=O)N[C@@H](Cc1c[nH]c2ccccc12)C(=O)N[C@@H](CCC(N)=O)C(=O)N[C@@H](CCCNC(=N)N)C(N)=O)[C@@H](C)CC [Peptide C14-KR6] (Myristoyl-KRIWQR-NH2; C-terminus assumed)
[1]
  MIC KP: >50 µM

## CCCCCCCCCCCCCC(=O)N[C@@H](CCCCN)C(=O)N[C@@H](CCCNC(=N)N)C(=O)N[C@H](C(=O)N[C@@H](Cc1c[nH]c2ccccc12)C(=O)N[C@@H](CCC(N)=O)C(=O)N[C@@H](CCCNC(=N)N)C(=O)N[C@H](C(=O)N[C@@H](CCCCN)C(N)=O)[C@@H](C)CC)[C@@H](C)CC [Peptide C14-KR8] (Myristoyl-KRIWQRIK-NH2)
[1]
  MIC KP: >50 µM

## CCCCCCCCCCCCCC(=O)N[C@@H](CCCCN)C(=O)N[C@@H](CCCNC(=N)N)C(=O)N[C@H](C(=O)N[C@@H](Cc1c[nH]c2ccccc12)C(=O)N[C@@H](CCC(N)=O)C(=O)N[C@@H](CCCNC(=N)N)C(=O)N[C@H](C(=O)N[C@@H](CCCCN)C(=O)N[C@@H](CC(=O)O)C(=O)N[C@@H](Cc1ccccc1)C(N)=O)[C@@H](C)CC)[C@@H](C)CC [Peptide C14-KR10] (Myristoyl-KRIWQRIKDF-NH2)
[1]
  MIC KP: 6.2 µM (≈ 9.91 µg/mL)

## KRIVQRIKDFLR-NH2 [KR12, reference compound]
E. coli ATCC25922
  MIC EC: >50 µM
[1]
  MIC KP: >50 µM
